Test system: FLK-1 receptor
Assay: FLK-1 Assay (cellular/catalytic ELISA, VEGF-stimulated phosphotyrosine)
Assay type: cell-based
Design: concentration or dose not given beside the values
Conditions: protocol P.110
How it was run: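 NIH3T3 C7#3 cells engineered to express Flk-1 were serum-starved overnight (0.1% FBS), then exposed to compound for 2 h at 37 °C (final dilution 1:200, 0.5% DMSO) before VEGF stimulation. Lysates captured on anti-FLK-1 antiserum plates; phosphotyrosine detected by UB40 antibody/POD-ABTS ELISA versus untreated controls.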

SMILES	Flk Kinase % Inhibition (P.110) [%]
Cc1c(Br)cc(Br)c2c1C(=Cc1cc(O)cc(O)c1)C(=O)N2 [10738/H07]	−17.4
Cc1c(Br)cc(Br)c2c1C(=Cc1ccc(Cl)c(Cl)c1)C(=O)N2 [10738/H08]	−12.7
COc1ccccc1C=C1C(=O)Nc2c(Br)cc(Br)c(C)c21 [10738/H09]	−6.5
Cc1c(Br)cc(Br)c2c1C(=Cc1ccc(C(C)C)cc1)C(=O)N2 [10738/H10]	1.7
CCCOc1ccc(C=C2C(=O)Nc3c(Br)cc(Br)c(C)c32)cc1 [10738/H11]	−4.1
COc1ccc(C=C2C(=O)Nc3c(Br)cc(Br)cc32)cc1C [10739/A02]	1.2
O=C1Nc2c(Br)cc(Br)cc2C1=Cc1cccc(OCc2ccccc2)c1 [10739/A03]	2.9
O=C1Nc2c(Br)cc(Br)cc2C1=Cc1ccc(OCc2ccccc2)cc1 [10739/A04]	−8.2
O=C1Nc2c(Br)cc(Br)cc2C1=CC1COc2ccccc2O1 (stereo not drawn) [10739/A05]	−11.0
O=C1Nc2c(Br)cc(Br)cc2C1=Cc1ccc(O)cc1Cl [10739/A06]	7.4
O=C1Nc2c(Br)cc(Br)cc2C1=Cc1cc(O)c(O)c(O)c1 [10739/A07]	4.1
COc1ccc(Oc2cccc(C=C3C(=O)Nc4c(Br)cc(Br)cc43)c2)cc1 [10739/A08]	−25.5
CN(C)CCCOc1ccc(C=C2C(=O)Nc3c(Br)cc(Br)cc32)cc1 [10739/A09]	−9.1
O=C1Nc2c(Br)cc(Br)cc2C1=Cc1ccoc1 [10739/A10]	−2.5
O=C1Nc2c(Br)cc(Br)cc2C1=Cc1ccc(CO)o1 [10739/A11]	3.9
COc1ccc(C=C2C(=O)Nc3ccc(I)cc32)cc1C [10739/B02]	2.1
O=C1Nc2ccc(I)cc2C1=Cc1cccc(OCc2ccccc2)c1 [10739/B03]	3.5
O=C1Nc2ccc(I)cc2C1=Cc1ccc(OCc2ccccc2)cc1 [10739/B04]	13.2
O=C1Nc2ccc(I)cc2C1=CC1COc2ccccc2O1 (stereo not drawn) [10739/B05]	4.1

SMILES	Flk Kinase % Inhibition (P.110) [%]
O=C1Nc2ccc(I)cc2C1=Cc1ccc(O)cc1Cl [10739/B06]	9.3
O=C1Nc2ccc(I)cc2C1=Cc1cc(O)c(O)c(O)c1 [10739/B07]	1.1
COc1ccc(Oc2cccc(C=C3C(=O)Nc4ccc(I)cc43)c2)cc1 [10739/B08]	6.5
CN(C)CCCOc1ccc(C=C2C(=O)Nc3ccc(I)cc32)cc1 [10739/B09]	−15.4
O=C1Nc2ccc(I)cc2C1=Cc1ccoc1 [10739/B10]	−10.1
O=C1Nc2ccc(I)cc2C1=Cc1ccc(CO)o1 [10739/B11]	12.5
COc1ccc(C=C2C(=O)Nc3ccc(Br)c(C)c32)cc1C [10739/C02]	−10.8
Cc1c(Br)ccc2c1C(=Cc1cccc(OCc3ccccc3)c1)C(=O)N2 [10739/C03]	16.4
Cc1c(Br)ccc2c1C(=Cc1ccc(OCc3ccccc3)cc1)C(=O)N2 [10739/C04]	21.8
Cc1c(Br)ccc2c1C(=CC1COc3ccccc3O1)C(=O)N2 (stereo not drawn) [10739/C05]	5.6
Cc1c(Br)ccc2c1C(=Cc1ccc(O)cc1Cl)C(=O)N2 [10739/C06]	17.7
Cc1c(Br)ccc2c1C(=Cc1cc(O)c(O)c(O)c1)C(=O)N2 [10739/C07]	−14.5
COc1ccc(Oc2cccc(C=C3C(=O)Nc4ccc(Br)c(C)c43)c2)cc1 [10739/C08]	4.8
Cc1c(Br)ccc2c1C(=Cc1ccc(OCCCN(C)C)cc1)C(=O)N2 [10739/C09]	10.0
Cc1c(Br)ccc2c1C(=Cc1ccoc1)C(=O)N2 [10739/C10]	−7.1
Cc1c(Br)ccc2c1C(=Cc1ccc(CO)o1)C(=O)N2 [10739/C11]	70.6
CNS(=O)(=O)c1ccc2c(c1)C(=Cc1ccc(OC)c(C)c1)C(=O)N2 [10739/D02]	25.6
CNS(=O)(=O)c1ccc2c(c1)C(=Cc1cccc(OCc3ccccc3)c1)C(=O)N2 [10739/D03]	−18.3
CNS(=O)(=O)c1ccc2c(c1)C(=Cc1ccc(OCc3ccccc3)cc1)C(=O)N2 [10739/D04]	11.8

SMILES	Flk Kinase % Inhibition (P.110) [%]
CNS(=O)(=O)c1ccc2c(c1)C(=CC1COc3ccccc3O1)C(=O)N2 (stereo not drawn) [10739/D05]	12.2
CNS(=O)(=O)c1ccc2c(c1)C(=Cc1ccc(O)cc1Cl)C(=O)N2 [10739/D06]	9.0
CNS(=O)(=O)c1ccc2c(c1)C(=Cc1cc(O)c(O)c(O)c1)C(=O)N2 [10739/D07]	−5.1
CNS(=O)(=O)c1ccc2c(c1)C(=Cc1cccc(Oc3ccc(OC)cc3)c1)C(=O)N2 [10739/D08]	14.3
CNS(=O)(=O)c1ccc2c(c1)C(=Cc1ccc(OCCCN(C)C)cc1)C(=O)N2 [10739/D09]	−32.8
COc1ccc(C=C2C(=O)Nc3ccc(S(=O)(=O)Nc4ccc(C(F)(F)F)cc4)cc32)cc1C [10739/E02]	26.7
O=C1Nc2ccc(S(=O)(=O)Nc3ccc(C(F)(F)F)cc3)cc2C1=Cc1cccc(OCc2ccccc2)c1 [10739/E03]	−119.0
O=C1Nc2ccc(S(=O)(=O)Nc3ccc(C(F)(F)F)cc3)cc2C1=Cc1ccc(OCc2ccccc2)cc1 [10739/E04]	17.7
O=C1Nc2ccc(S(=O)(=O)Nc3ccc(C(F)(F)F)cc3)cc2C1=CC1COc2ccccc2O1 (stereo not drawn) [10739/E05]	28.0
O=C1Nc2ccc(S(=O)(=O)Nc3ccc(C(F)(F)F)cc3)cc2C1=Cc1ccc(O)cc1Cl [10739/E06]	34.3
O=C1Nc2ccc(S(=O)(=O)Nc3ccc(C(F)(F)F)cc3)cc2C1=Cc1cc(O)c(O)c(O)c1 [10739/E07]	10.0
COc1ccc(Oc2cccc(C=C3C(=O)Nc4ccc(S(=O)(=O)Nc5ccc(C(F)(F)F)cc5)cc43)c2)cc1 [10739/E08]	17.2
CN(C)CCCOc1ccc(C=C2C(=O)Nc3ccc(S(=O)(=O)Nc4ccc(C(F)(F)F)cc4)cc32)cc1 [10739/E09]	24.5
O=C1Nc2ccc(S(=O)(=O)Nc3ccc(C(F)(F)F)cc3)cc2C1=Cc1ccoc1 [10739/E10]	11.2
O=C1Nc2ccc(S(=O)(=O)Nc3ccc(C(F)(F)F)cc3)cc2C1=Cc1ccc(CO)o1 [10739/E11]	15.3
COc1ccc(C=C2C(=O)Nc3ccc(S(=O)(=O)N4CCOCC4)cc32)cc1C [10739/F02]	25.5
O=C1Nc2ccc(S(=O)(=O)N3CCOCC3)cc2C1=Cc1cccc(OCc2ccccc2)c1 [10739/F03]	24.5
O=C1Nc2ccc(S(=O)(=O)N3CCOCC3)cc2C1=Cc1ccc(OCc2ccccc2)cc1 [10739/F04]	26.3
O=C1Nc2ccc(S(=O)(=O)N3CCOCC3)cc2C1=CC1COc2ccccc2O1 (stereo not drawn) [10739/F05]	8.7

Reference: patent US20020026053A1, “Novel 3-(substituted) -2- indolinones compounds and use thereof as inhibitors of protein kinase activity” (priority 1997, published 2002)
